According to US11242347B2, “2-phenyl-3,4-dihydropyrrolo[2,1-Ff] [1,2,4]triazinone derivatives as phosphodiesterase inhibitors and uses thereof” (TOPADUR PHARMA AG, priority 2015, dated 2022):

What was measured:
[1] = tested on: human pulmonary artery smooth muscle cells (hPASMC); test: Measurements of cGMP in human pulmonary artery smooth muscle cells (hPASMC); assay type: cell-based; conditions: incubation 15 or 30 min; compared with sildenafil
Protocol: Human Pulmonary Artery Smooth Muscle Cells (hPASMC) were purchased from Clonetics™ Lonza (Lonza, reference number CC-2581) and cultured in Clonetics' smooth muscle growth medium (Clonetics™ SmGM™-2 with BulletKit™ growth factor supplements (Lonza, reference number CC-3182) at 37° C. in 5% CO2. Culture medium was replaced each 48 hours. Cells were grown in 75 cm^2 culture plates.
48 h before the experiments, cells were trypsinized (Trypsin kit One ReagentPack™ (CC-5034), Lonza) and plated in 96 well plates precoated with collagen I at 10000 cells per well. 24 h before the experiments culture medium was replaced by serum-reduced (0.5% FBS) medium.
Measurements of intracellular cGMP were performed using the Amersham cGMP EIA System (GE Healthcare, RPN226) following the instructions of the manufacturer. The assay has a sensitivity of 2 fmol cGMP per well. Briefly, incubations were terminated by adding Amersham's lysis buffer 1 and cells left for 10 min under agitation to ensure complete lysis. cGMP in samples was then acetylated using triethylamine and acetic anhydride and determined by a competitive ELISA. The ELISA is based on the competition between acetylated cGMP in cell culture lysates and a peroxidase-labelled cGMP conjugate for limited binding sites on a cGMP specific antiserum immobilized on pre-coated 96 well MTP. cGMP was determined based on a standard curve. […]

[2] = tested on: phenylephrine-precontracted rat aortic rings; test: Isometric tension studies: relaxation of phenylephrine-precontracted rat aortic rings; conditions: for IC40: concentration where 40% relaxation was achieved
Protocol: After 1 week of acclimatization, rats were anesthetized. Appropriate depth of anesthesia was determined by the absence of the leg flexor response and the eyelid reflex. Then, the thorax was quickly opened by a midline incision, and the rat was sacrificed by cutting the heart and exsanguination.
Indomethacin (1 μM) was added to the saline solution.
Eligible rings were then washed several times to restore tension to the baseline level.
In some experiments, the entire length of the thoracic aorta was functionally denuded of the endothelial layer by gently scraping the luminal surface with a 1.5 mm glass rod. […] Rings were then washed several times to restore tension to the baseline level.
Indomethacin (1 μM) was added to the saline solution. […] Only vessels with at least 60% relaxation to 1 μM ACh from the tension with 300 nM were eligible.
The preparations were allowed to equilibrate for 60 min in Krebs with high glucose (25 mM) before contraction to a new single concentration of PE (300 nM).
Finally, sodium nitroprusside (0.1 mM) was added, in order to obtain maximum relaxation of arterial rings.
The amount of relaxation (percent values as means±SEM) was quantified as percent relaxation from the tension (plateau) achieved with phenylephrine.
Data are presented as mean±SEM. Statistical analysis of results has been performed by analysis of variance (ANOVA) either parametric or non-parametric (Kruskal-Wallis), followed by Bonferroni test or Dunn tests as appropriate (GraphPad Software Inc, San Diego, Calif., USA). Significance was accepted when P<0.05. Non-linear regression was conducted with GraphPad Software).

CCCOc1ccc(S(=O)(=O)N2CCC(CCO)CC2)cc1-c1nn2c(CCC)c(/C=N/O)c(C)c2c(=O)[nH]1 [Compound 1r, (E)-2-(5-((4-(2-hydroxyethyl)piperidin-1-yl)sulfonyl)-2-propoxyphenyl)-5-methyl-4-oxo-7-propyl-3,4-dihydropyrrolo[2,1-f][1,2,4]triazine-6-carbaldehyde oxime]
cGMP formation in hPASMC, activity in words [1]: significantly higher activity as compared to the reference inhibitor sildenafil
EC50 ([2]; High Glucose (25 mM)): 2.79 nM
Emax ([2]; High Glucose (25 mM)): 51%
IC40 ([2]; High Glucose (25 mM)): 89.295 nM
EC50 ([2]; Intact Endothelium (E+)): 0.0074 nM
Emax ([2]; Intact Endothelium (E+)): 91.9%
IC40 ([2]; Intact Endothelium (E+)): 0.0038 nM
EC50 ([2]; L-NAME (100 μM)): 0.935 nM
Emax ([2]; L-NAME (100 μM)): 60.4%
IC40 ([2]; L-NAME (100 μM)): 2.982 nM
EC50 ([2]; Without Endothelium): 5.94 nM
Emax ([2]; Without Endothelium): 39.8%
IC40 ([2]; Without Endothelium): >1000 nM
relaxation of rat aortic rings, result in words ([2]; intact endothelium (FIG. 2A)): more potent and effective than Sildenafil
